Values of other authors as cited in patent US20110177038A1, “Inhibition of Tumor Growth via Peroxiredoxin 3” (THE JOHNS HOPKINS UNIVERSITY, priority 2002, published 2011).

Tested on: MCF7/ADR cells
Details: free radical scavenger

CC(=O)C(=O)[O-].[Na+] [sodium pyruvate]
Inhibition of apoptosis after glucose withdrawal: sufficient to inhibit apoptosis
